From US20250108036A1, “COMPOSITIONS FOR REMOVING SENESCENT CELLS AND USES THEREOF” (LIFECEUTIX CO., LTD., priority 2021, published 2025)

What was measured:
Format in all cases: in vivo, C57BL6J mice
[1] = system: p16, p21; assay: p16 and p21 mRNA qRT-PCR in obesity-aged (DIO) mice (Example 9-2); details: LX-112 70 mg/kg oral daily 21 days, DIO without LX = 100%
Experimental: 15-week-old male C57BL6J mice (purchased from Jackson Laboratories), whose obesity was induced by a high-fat diet, were adapted to the experimental environment for one week, and then the mice were randomized into an experimental group and a control group. LX-112 was mixed with 0.5% CMC-Na solution (purchased from Sigma) and administered orally at a concentration of 70 mg/kg daily for 21 days. The control group was administered only the solution in the same volume. After drug administration was completed, the method described in each Example below was performed. Mice were sacrificed and the weight of adipose tissue in each area was measured.
Mice were sacrificed in the same manner as in Example 7-2, RNA was extracted from the organ tissue of each region, and qRT-PCR (quantitative real-time PCR) was performed and analyzed using the synthesized cDNA. […] Table 54 calculates the mRNA amounts of p16 and p21 after aging induced by obesity as 100% and compares them with the mRNA amounts of p16 and p21 after treatment with LX-112.

[2] = system: AST, ALT; assay: serum AST and ALT in doxorubicin-aged mice (Example 8-8); details: doxorubicin-aged mice, LX-112 70 mg/kg oral daily 21 days, DOX without LX = 100%
Experimental: After adapting 8-week-old male C57BL6J mice (purchased from KRIBB Laboratory Animal Resource Center) to the experimental environment for 1 week, doxorubicin, an anticancer drug, was administered intraperitoneally at a concentration of 10 mg/kg, and mice that were induced to age for more than 10 days were assigned to an experimental group and a control group. LX-112 was mixed with 0.5% CMC-Na solution (purchased from Sigma) and administered orally at a concentration of 70 mg/kg daily for 21 days. The control group was administered only the solution in the same volume. After drug administration was completed, the method described in each Example below was performed.
In the same manner as in Example 7-5, the amounts of AST (aspartate aminotransferase) and ALT (alanine transaminase) released into the blood during liver damage were measured by spectrophotometry in the serum collected from mice using a kit (purchased from Sigma) according to the method described in the manual. […] Table 50 calculates the amount of each factor after aging was induced by treatment with the anticancer drug as 100% and compared it with the amount of each factor after treatment with LX-112.

[3] = system: lipofuscin; assay: lipofuscin (Sudan Black B) staining of muscle of naturally aged mice (Example 7-4); details: stained area, LX-112 70 mg/kg oral daily 21 days
Experimental: After 22-month-old female C57BL6J mice (purchased from KRIBB Laboratory Animal Resource Center) were adapted to the experimental environment for one week, the aged mice were randomized into an experimental group and a control group. 8-week-old mice that were not aged were used as controls. LX-112 was mixed with 0.5% CMC-Na solution (purchased from Sigma) and administered orally at a concentration of 70 mg/kg daily for 21 days. The control group was administered only the solution in the same volume. After drug administration was completed, the method described in each Example below was performed.
Mice was sacrificed and tissue sections from muscle tissue were prepared in the same manner as in Example 7-3. Lipofuscin is a degenerative abnormal complex of proteins and lipids produced in cell lysosomes with aging and is a marker of aging-related degeneration. The amount of lipofuscin was measured as follows: the sections were stained using Sudan Black B (purchased from Sigma) and photographed, and then the area of the stained area was calculated using the Image J program and quantified by normalizing it based on the total area.

[4] = open field test in obese mice given senescent cells killed by test compounds (Example 16, Table 72); details: obese mice administered senescent cells whose death was induced by the test compound
Source text: To obtain preadipocytes, groin fat tissue was collected from an 8-week-old female C57BL6J mouse (purchased from KRIBB Laboratory Animal Resource Center). The fat tissue was cut into small pieces and treated with collagenase to decompose the fat tissue, then centrifuged to collect the stromal vascular fraction (SVF) containing preadipocytes. It was washed with a washing medium (HBSS, purchased from GenDEPOT; 3.5% Albumin Fraction V, purchased from GenDEPOT; 100 U/ml Penicillin & Streptomycin, purchased from Invitrogen), mixed again, and extracted by filtering through a 100 μm nylon mesh. The isolated preadipocytes were cultured in the designated medium (DMEM, purchased from GenDEPOT; 20% FBS, purchased from GenDEPOT; 100 U/ml Penicillin & Streptomycin, purchased from Invitrogen). In the same manner as Example 1, cells were treated with doxorubicin at a concentration of 250 nM for 24 hours and cultured for an additional 21 days to induce cell senescence. Cells were treated with doxorubicin at a concentration of 250 nM for 24 hours and cultured for an additional 21 days to induce cell senescence. By treating the test compounds in the same manner as in Example 13, it was confirmed using an optical microscope that the death of most senescent cells was induced. The killed preadipocytes were washed using PBS (purchased from Welgene) and then mixed with PBS at a concentration of 5×10^5 cells/200 μl. It was administered subcutaneously to 8-week-old female C57BL6J mice (purchased from KRIBB Laboratory Animal Resource Center). At 7 and 10 days after administration of the killed senescent cells, 2 million senescent preadipocytes were mixed in 200 μl of PBS and administered into the abdominal cavity of mice. After administration of killed senescent cells, obesity was induced in mice with a high-fat diet (DIO) for 8 weeks in the same manner as in Example 9-1. Afterwards, the mouse was sacrificed in the same manner as in Example 7-2, total RNA was extracted from the groin fat tissue, and qRT-PCR was performed and analyzed using the synthesized cDNA. […] The mRNA amount of p16, MMP3, and IL6 without administration of senescent cells whose death was induced by the test compounds was calculated as 100%, and the amount of p16, MMP3, and IL6 after administration of the senescent cells whose death was induced by the test compounds was compared with them. Furthermore, an open field test was performed to analyze aging-related frailty in mice using the same method as Example 7-7. […] The amount of activity evaluation without administration of senescent cells whose death was induced by the test compounds was calculated as 100% and compared it with the amount of activity evaluation after administration of senescent cells whose death was induced by the test compounds.

O=c1c2ccccc2[se]n1CCn1[se]c2ccccc2c1=O [LX-112, 1,2-[bis(1,2-benzisoselenazolone-3(2H)-ketone)]ethane]
p16 mRNA (%) Liver [1]: 71.3% | p16 mRNA (%) Lung [1]: 81% | p16 mRNA (%) Muscle [1]: 77.8% | p16 mRNA (%) Skin [1]: 79.1% | p16 mRNA (%) asWAT [1]: 84.1% | p16 mRNA (%) eWAT [1]: 61.2% | p16 mRNA (%) iBAT [1]: 89.2% | p16 mRNA (%) iWAT [1]: 79.1% | p21 mRNA (%) Liver [1]: 62.9% | p21 mRNA (%) Lung [1]: 79.3% | p21 mRNA (%) Muscle [1]: 73.2% | p21 mRNA (%) Skin [1]: 78.1% | p21 mRNA (%) asWAT [1]: 82.1% | p21 mRNA (%) eWAT [1]: 67.2% | p21 mRNA (%) iBAT [1]: 70% | p21 mRNA (%) iWAT [1]: 71.2% | ALT (%) [2]: 72.2 (±14.1) % | AST (%) [2]: 78 (±17.3) % | Lipofuscin (%) Muscle [3]: 71 (±6) %

COC(=O)c1ccc([C@H]2c3[nH]c4ccccc4c3C[C@H](C(=O)OC)N2C(=O)CCl)cc1 [LX-405]
Open Field Test Time in Center (%) [4]: 174.2 (±12.5) %
